Data on one compound can be found in patent US20240277800A1, “PHARMACEUTICAL COMPOSITION COMPRISING MACROCOSINE COMPOUND AND METHOD FOR PREPARING MACROCOSINE COMPOUND” (priority 2021, published 2024).

This assay concerns M. tuberculosis. As to the kind of experiment: Antibacterial activity against tuberculosis bacteria, resazurin (REMA) MIC50. In kind it is cell-based. The conditions noted are these: Mycobacterium tuberculosis. (In general: Resazurin is reduced to fluorescent resorufin, in cell work by metabolically active cells.)

Structures are written as SMILES. Converted amounts (≈) assume the structure as drawn. Where two headings read alike, the source gives them in different places.

As a reminder, the MIC50 is the lowest concentration that inhibits either 50% of growth or 50% of the strains tested, depending on the study. Take `C/C=C(\NC(=O)c1csc(-c2csc(-c3ccc4c(n3)-c3csc(n3)[C@H]([C@@H](C)O)NC(=O)c3csc(n3)[C@H](C(C)C)NC(=O)c3csc(n3)/C(=C/C)NC(=O)[C@H]([C@@H](C)O)NC(=O)c3csc-4n3)n2)n1)C(=O)NCC(C)=O` [Micrococcin P2]: the MIC50 was 0.375 µM (≈ 0.428 µg/mL) (Extensively Drug Resistant #3 (XDR-3), read-out: MIC50); 0.094 µM (≈ 0.107 µg/mL) (Extensively Drug Resistant #4 (XDR-4), read-out: MIC50); 0.114 µM (≈ 0.13 µg/mL) (Extensively Drug Resistant #5 (XDR-5), read-out: MIC50); 0.722 µM (≈ 0.825 µg/mL) (Extensively Drug Resistant #6 (XDR-6), read-out: MIC50); 0.209 µM (≈ 0.239 µg/mL) (Extensively Drug Resistant #10 (XDR-7)); 0.073 µM (≈ 0.0834 µg/mL) (Multi Drug Resistant isolate #3 (MDR-3), read-out: MIC50). For the same compound, the MIC50 runs as follows: (Multi Drug Resistant isolate #4 (MDR-4), read-out: MIC50) 0.169 µM (≈ 0.193 µg/mL); (Multi Drug Resistant isolate #11 (MDR-11), read-out: MIC50) 0.051 µM (≈ 0.0583 µg/mL); (Multi Drug Resistant isolate #20 (MDR-20), read-out: MIC50) 2.3 µM (≈ 2.63 µg/mL); (Multi Drug Resistant isolate #21 (MDR-21), read-out: MIC50) 0.044 µM (≈ 0.0503 µg/mL); (Multi Drug Resistant isolate #30 (MDR-30), read-out: MIC50) 0.304 µM (≈ 0.347 µg/mL).
